Assay results: ChEMBL document CHEMBL5649169 (ChemMedChem, 2018)

Columns and labels:
[1] = target: Ketosamine-3-kinase (Homo sapiens) (UniProt Q9HA64)
[2] = target: Small ribosomal subunit protein uS5 (Homo sapiens) (UniProt P15880)
[3] = target: Synaptogyrin-2 (Homo sapiens) (UniProt O43760)
[4] = target: Dual specificity testis-specific protein kinase 2 (Homo sapiens) (UniProt Q96S53)
[5] = target: mRNA turnover protein 4 homolog (Homo sapiens) (UniProt Q9UKD2)
[6] = target: Dihydropyrimidinase-related protein 3 (Homo sapiens) (UniProt Q14195)
[7] = target: Heat shock protein 105 kDa (Homo sapiens) (UniProt Q92598)
[8] = target: Glycogen phosphorylase, liver form (Homo sapiens) (UniProt P06737)
[9] = target: Histone deacetylase 2 (Homo sapiens) (UniProt Q92769)
Peflin (Homo sapiens) = Peflin (Homo sapiens) (UniProt Q9UBV8)
[10] = target: Sideroflexin-1 (Homo sapiens) (UniProt Q9H9B4)
Sideroflexin-1 (Homo sapiens), sequence (Q9H9B4 whole entry): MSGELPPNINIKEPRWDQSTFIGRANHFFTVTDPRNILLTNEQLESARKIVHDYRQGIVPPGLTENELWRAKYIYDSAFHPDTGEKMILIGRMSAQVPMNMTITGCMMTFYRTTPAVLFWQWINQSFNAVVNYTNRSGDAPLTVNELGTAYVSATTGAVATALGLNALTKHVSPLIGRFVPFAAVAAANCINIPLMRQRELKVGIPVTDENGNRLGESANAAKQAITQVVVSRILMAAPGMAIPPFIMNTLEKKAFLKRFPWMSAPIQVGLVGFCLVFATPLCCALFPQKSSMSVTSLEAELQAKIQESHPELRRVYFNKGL

[11] = target: Conserved oligomeric Golgi complex subunit 4 (Homo sapiens) (UniProt Q9H9E3)
[12] = target: Splicing factor, proline- and glutamine-rich (Homo sapiens) (UniProt P23246)
Splicing factor, proline- and glutamine-rich (Homo sapiens), sequence (P23246 whole entry, the tested form may be a part): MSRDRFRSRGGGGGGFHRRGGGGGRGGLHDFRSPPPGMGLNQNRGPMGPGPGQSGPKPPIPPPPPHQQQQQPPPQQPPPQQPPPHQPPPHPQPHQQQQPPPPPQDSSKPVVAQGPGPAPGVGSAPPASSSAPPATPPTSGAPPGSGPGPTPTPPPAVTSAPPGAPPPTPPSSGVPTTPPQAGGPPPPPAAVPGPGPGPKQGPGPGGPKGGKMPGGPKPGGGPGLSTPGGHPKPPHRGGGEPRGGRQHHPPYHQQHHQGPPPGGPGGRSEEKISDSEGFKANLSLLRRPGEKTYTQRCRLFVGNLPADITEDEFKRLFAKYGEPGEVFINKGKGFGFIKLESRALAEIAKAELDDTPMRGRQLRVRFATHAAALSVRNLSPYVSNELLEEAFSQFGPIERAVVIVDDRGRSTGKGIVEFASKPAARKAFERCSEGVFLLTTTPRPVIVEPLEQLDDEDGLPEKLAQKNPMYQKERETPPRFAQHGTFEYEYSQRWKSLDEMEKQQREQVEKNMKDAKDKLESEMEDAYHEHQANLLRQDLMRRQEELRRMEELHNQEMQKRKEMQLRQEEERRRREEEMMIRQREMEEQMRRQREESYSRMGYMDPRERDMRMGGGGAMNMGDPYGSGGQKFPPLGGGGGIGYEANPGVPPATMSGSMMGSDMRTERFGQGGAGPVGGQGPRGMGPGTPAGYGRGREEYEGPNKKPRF

[13] = target: TBC1 domain family member 5 (Homo sapiens) (UniProt Q92609)
Erlin-1 (Homo sapiens) = Erlin-1 (Homo sapiens) (UniProt O75477)
[14] = target: HLA class I histocompatibility antigen, A alpha chain (Homo sapiens) (UniProt P04439)
[15] = target: Large ribosomal subunit protein eL30 (Homo sapiens) (UniProt P62888)
[16] = target: Clathrin heavy chain 1 (Homo sapiens) (UniProt Q00610)
[17] = target: Methionine--tRNA ligase, cytoplasmic (Homo sapiens) (UniProt P56192)
[18] = target: Aminoacyl tRNA synthase complex-interacting multifunctional protein 2 (Homo sapiens) (UniProt Q13155)
Aminoacyl tRNA synthase complex-interacting multifunctional protein 2 (Homo sapiens), sequence (Q13155 whole entry, one chain of several): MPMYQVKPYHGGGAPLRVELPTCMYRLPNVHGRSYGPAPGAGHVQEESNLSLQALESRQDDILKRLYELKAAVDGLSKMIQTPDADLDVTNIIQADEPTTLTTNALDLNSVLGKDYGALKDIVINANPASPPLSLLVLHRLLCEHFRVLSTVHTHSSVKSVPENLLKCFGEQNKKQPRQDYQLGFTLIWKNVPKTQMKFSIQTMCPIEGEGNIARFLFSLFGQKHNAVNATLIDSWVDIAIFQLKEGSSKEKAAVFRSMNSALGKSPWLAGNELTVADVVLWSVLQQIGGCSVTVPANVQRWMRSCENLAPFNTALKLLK

[19] = target: Fatty acid CoA ligase Acsl3 (Homo sapiens) (UniProt O95573)
Fatty acid CoA ligase Acsl3 (Homo sapiens), sequence (O95573 whole entry): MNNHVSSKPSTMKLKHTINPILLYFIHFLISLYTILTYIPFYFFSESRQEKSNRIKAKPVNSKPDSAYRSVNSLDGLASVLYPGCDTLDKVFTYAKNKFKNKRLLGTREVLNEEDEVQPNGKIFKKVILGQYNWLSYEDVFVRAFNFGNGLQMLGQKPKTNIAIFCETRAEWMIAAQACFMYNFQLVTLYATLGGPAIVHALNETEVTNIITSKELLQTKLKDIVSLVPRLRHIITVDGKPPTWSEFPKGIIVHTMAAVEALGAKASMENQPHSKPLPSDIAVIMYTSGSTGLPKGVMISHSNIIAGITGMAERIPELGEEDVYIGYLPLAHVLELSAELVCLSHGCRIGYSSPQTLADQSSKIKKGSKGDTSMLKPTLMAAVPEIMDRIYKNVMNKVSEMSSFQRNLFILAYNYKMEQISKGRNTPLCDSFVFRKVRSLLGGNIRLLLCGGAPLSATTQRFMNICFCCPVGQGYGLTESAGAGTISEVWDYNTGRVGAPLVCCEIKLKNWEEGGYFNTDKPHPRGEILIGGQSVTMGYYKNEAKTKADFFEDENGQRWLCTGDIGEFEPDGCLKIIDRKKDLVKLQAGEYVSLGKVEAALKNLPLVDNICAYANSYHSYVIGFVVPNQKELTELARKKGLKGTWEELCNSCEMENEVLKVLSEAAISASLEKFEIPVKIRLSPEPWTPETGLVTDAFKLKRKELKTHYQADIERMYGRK

[20] = target: Peroxiredoxin-2 (Homo sapiens) (UniProt P32119)
Peroxiredoxin-2 (Homo sapiens), sequence (P32119 whole entry): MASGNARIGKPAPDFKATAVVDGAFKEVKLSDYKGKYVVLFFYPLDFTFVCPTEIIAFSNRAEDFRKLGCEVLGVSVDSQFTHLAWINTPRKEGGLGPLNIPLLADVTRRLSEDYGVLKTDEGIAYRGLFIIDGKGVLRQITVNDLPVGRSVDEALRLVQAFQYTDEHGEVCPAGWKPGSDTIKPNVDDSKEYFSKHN

[21] = target: Ribosyldihydronicotinamide dehydrogenase [quinone] (Homo sapiens) (UniProt P16083)
[22] = target: Small ribosomal subunit protein eS21 (Homo sapiens) (UniProt P63220)
[23] = target: Mitochondrial-processing peptidase subunit beta (Homo sapiens) (UniProt O75439)
Mitochondrial-processing peptidase subunit beta (Homo sapiens), sequence (O75439 whole entry): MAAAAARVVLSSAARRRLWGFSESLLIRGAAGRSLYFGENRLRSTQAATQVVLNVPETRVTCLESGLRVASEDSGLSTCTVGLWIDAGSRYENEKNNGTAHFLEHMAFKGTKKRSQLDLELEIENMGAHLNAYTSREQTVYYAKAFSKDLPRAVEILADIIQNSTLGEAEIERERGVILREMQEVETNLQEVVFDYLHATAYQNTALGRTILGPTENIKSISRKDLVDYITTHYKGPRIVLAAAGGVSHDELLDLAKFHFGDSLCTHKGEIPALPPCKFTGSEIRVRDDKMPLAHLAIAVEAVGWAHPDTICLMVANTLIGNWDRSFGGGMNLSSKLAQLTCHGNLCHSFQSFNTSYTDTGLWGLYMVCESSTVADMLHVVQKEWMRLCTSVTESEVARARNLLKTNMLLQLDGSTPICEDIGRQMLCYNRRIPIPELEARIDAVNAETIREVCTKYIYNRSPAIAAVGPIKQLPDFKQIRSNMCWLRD

Wolframin (Homo sapiens) = Wolframin (Homo sapiens) (UniProt O76024)
Wolframin (Homo sapiens), sequence (O76024 whole entry): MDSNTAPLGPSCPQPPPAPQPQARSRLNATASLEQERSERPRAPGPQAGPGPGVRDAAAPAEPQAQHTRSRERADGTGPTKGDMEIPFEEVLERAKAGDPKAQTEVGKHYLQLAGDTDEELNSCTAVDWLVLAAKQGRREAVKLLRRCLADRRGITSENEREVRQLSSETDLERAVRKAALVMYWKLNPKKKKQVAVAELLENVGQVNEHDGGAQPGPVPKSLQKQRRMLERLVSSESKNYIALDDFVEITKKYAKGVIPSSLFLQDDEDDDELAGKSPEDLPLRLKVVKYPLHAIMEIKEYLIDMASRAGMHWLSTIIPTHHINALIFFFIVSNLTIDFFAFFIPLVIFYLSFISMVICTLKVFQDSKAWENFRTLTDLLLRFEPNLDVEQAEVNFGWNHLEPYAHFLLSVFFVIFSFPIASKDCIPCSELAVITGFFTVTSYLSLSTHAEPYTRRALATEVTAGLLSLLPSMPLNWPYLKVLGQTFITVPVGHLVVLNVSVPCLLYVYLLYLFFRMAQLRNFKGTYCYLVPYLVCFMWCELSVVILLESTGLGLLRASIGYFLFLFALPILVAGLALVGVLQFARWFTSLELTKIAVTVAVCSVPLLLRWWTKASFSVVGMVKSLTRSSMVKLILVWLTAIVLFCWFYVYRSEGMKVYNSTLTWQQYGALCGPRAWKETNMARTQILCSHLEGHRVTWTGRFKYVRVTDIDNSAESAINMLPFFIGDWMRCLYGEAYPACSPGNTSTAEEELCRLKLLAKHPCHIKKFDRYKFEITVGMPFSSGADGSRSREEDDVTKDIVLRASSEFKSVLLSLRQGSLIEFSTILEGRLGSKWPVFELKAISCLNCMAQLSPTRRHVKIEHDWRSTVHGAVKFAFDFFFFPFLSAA

[24] = target: Mitogen-activated protein kinase 7 (Homo sapiens) (UniProt Q13164)
[25] = target: Glyceraldehyde-3-phosphate dehydrogenase (Homo sapiens) (UniProt P04406)
Glyceraldehyde-3-phosphate dehydrogenase (Homo sapiens), sequence (P04406 2-335 limits assumed): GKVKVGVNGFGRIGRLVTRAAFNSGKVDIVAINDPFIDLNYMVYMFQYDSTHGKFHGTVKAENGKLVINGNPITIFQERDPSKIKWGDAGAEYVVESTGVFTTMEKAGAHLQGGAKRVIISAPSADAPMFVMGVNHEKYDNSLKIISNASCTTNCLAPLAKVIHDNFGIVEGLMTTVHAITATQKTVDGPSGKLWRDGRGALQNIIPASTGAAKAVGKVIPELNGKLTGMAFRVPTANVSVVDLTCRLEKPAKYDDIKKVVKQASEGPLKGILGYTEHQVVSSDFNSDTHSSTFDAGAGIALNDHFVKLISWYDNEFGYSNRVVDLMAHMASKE

[26] = target: Cullin-associated NEDD8-dissociated protein 1 (Homo sapiens) (UniProt Q86VP6)
[27] = target: Prolyl 4-hydroxylase subunit alpha-1 (Homo sapiens) (UniProt P13674)
Prolyl 4-hydroxylase subunit alpha-1 (Homo sapiens), sequence (P13674 whole entry): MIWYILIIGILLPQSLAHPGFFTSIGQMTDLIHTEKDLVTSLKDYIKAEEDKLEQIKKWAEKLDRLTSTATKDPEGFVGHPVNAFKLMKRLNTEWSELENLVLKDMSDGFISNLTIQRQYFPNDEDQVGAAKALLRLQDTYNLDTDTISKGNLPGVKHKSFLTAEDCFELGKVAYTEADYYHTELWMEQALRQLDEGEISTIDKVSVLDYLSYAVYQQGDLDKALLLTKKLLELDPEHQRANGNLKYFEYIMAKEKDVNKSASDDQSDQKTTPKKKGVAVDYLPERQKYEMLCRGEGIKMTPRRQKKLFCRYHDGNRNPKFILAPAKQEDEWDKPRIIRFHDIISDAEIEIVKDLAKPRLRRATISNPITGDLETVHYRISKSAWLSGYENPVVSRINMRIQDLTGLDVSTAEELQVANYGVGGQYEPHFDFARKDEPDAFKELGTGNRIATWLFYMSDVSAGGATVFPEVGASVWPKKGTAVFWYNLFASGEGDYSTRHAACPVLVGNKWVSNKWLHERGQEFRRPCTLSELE

[28] = target: Dynein light chain 1, cytoplasmic (Homo sapiens) (UniProt P63167)
[29] = target: Small ribosomal subunit protein uS10 (Homo sapiens) (UniProt P60866)
[30] = target: Histone H4 (Homo sapiens) (UniProt P62805)
[31] = target: AP-2 complex subunit sigma (Homo sapiens) (UniProt P53680)
Nestin (Homo sapiens) = Nestin (Homo sapiens) (UniProt P48681)
[32] = target: High mobility group protein B1 (Homo sapiens) (UniProt P09429)
High mobility group protein B1 (Homo sapiens), sequence (P09429 whole entry): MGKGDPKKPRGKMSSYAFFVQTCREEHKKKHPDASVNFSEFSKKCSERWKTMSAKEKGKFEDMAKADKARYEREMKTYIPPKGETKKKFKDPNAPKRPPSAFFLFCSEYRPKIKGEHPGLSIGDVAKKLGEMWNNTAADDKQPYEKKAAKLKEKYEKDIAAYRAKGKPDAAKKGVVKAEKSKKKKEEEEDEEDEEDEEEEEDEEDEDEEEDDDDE

[33] = target: Glutamine--tRNA ligase (Homo sapiens) (UniProt P47897)
[34] = target: Proteasome activator complex subunit 2 (Homo sapiens) (UniProt Q9UL46)
[35] = target: Gem-associated protein 5 (Homo sapiens) (UniProt Q8TEQ6)
[36] = target: 14-3-3 protein epsilon (Homo sapiens) (UniProt P62258)
[37] = target: Double-strand break repair protein MRE11 (Homo sapiens) (UniProt P49959)
[38] = target: dCTP pyrophosphatase 1 (Homo sapiens) (UniProt Q9H773)
[39] = target: Small ribosomal subunit protein uS7 (Homo sapiens) (UniProt P46782)
[40] = target: Microtubule-actin cross-linking factor 1, isoforms 1/2/3/4/5 (Homo sapiens) (UniProt Q9UPN3)
[41] = target: MAP kinase-activated protein kinase 2 (Homo sapiens) (UniProt P49137)
[42] = target: Mitogen-activated protein kinase kinase kinase 5 (Homo sapiens) (UniProt Q99683)
[43] = target: Small ribosomal subunit protein uS12 (Homo sapiens) (UniProt P62266)
Note: assay method not described here.

Synaptogyrin-2 (Homo sapiens), sequence (O43760 whole entry): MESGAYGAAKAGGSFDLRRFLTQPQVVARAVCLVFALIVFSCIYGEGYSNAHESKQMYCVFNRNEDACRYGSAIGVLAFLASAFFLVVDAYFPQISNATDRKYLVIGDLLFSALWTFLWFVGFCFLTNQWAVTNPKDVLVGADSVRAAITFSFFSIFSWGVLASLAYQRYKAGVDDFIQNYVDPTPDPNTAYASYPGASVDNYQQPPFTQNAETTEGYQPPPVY

Cc1ccc(C(=O)Nc2cccc(C(F)(F)F)c2)cc1Nc1nc(-c2cccnc2)nc2nn(C)cc12
ED50 [1]: 0.0183 µM
ED50 [2]: 1.83 µM
ED50 [3]: 1.91 µM
ED50 [4]: 0.00616 µM
ED50 [5]: 0.311 µM
ED50 [6]: 0.639 µM
ED50 [7]: 8.65 µM
ED50 [8]: 5.79 µM
ED50 [9]: 0.0881 µM
ED50 (Peflin (Homo sapiens)): 10.8 µM
ED50 [10]: 0.012 µM
ED50 [11]: 0.0222 µM
ED50 [12]: 15 µM
ED50 [13]: 0.0265 µM
ED50 (Erlin-1 (Homo sapiens)): 0.00442 µM
ED50 [14]: 0.0554 µM
ED50 [15]: 1.58 µM
ED50 [16]: 0.0214 µM
ED50 [17]: 6.54 µM
ED50 [18]: 0.0495 µM
ED50 [19]: 37.2 µM
ED50 [20]: 6.92 µM
ED50 [21]: 4.12 µM
ED50 [22]: 0.00683 µM
ED50 [23]: 0.0476 µM
ED50 (Wolframin (Homo sapiens)): 2.66 µM
ED50 [24]: 5.74 µM
ED50 [25]: 0.0602 µM
ED50 [26]: 1.74 µM
ED50 [27]: 0.000132 µM
ED50 [28]: 5.16 µM
ED50 [29]: 3.63 µM
ED50 [30]: 0.00989 µM
ED50 [31]: 0.0179 µM
ED50 (Nestin (Homo sapiens)): 1.3 µM
ED50 [32]: 0.0503 µM
ED50 [33]: 17 µM
ED50 [34]: 9.77 µM
ED50 [35]: 0.232 µM
ED50 [36]: 0.0477 µM
ED50 [37]: 14.9 µM
ED50 [38]: 0.0305 µM
ED50 [39]: 0.0501 µM
ED50 [40]: 0.0234 µM
ED50 [41]: 0.0517 µM
ED50 [42]: 0.125 µM
ED50 [43]: 0.000624 µM

Cc1ccc(C(=O)Nc2cccc(C(F)(F)F)c2)cc1Nc1nc(-c2cccnc2)nc2c1cnn2C
ED50 [1]: 277 µM
ED50 [2]: 0.0804 µM
ED50 [3]: 44.4 µM
ED50 [4]: 0.00136 µM
ED50 [5]: 10.8 µM
ED50 [6]: 0.379 µM
ED50 [7]: 2.99 µM
ED50 [8]: 0.00239 µM
ED50 [9]: 18.9 µM
ED50 (Peflin (Homo sapiens)): 6.52 µM
ED50 [10]: 3.47 µM
ED50 [11]: 4.61 µM
ED50 [12]: 6.39 µM
ED50 [13]: 24 µM
ED50 (Erlin-1 (Homo sapiens)): 0.367 µM
ED50 [14]: 19000 µM
ED50 [15]: 0.0257 µM
ED50 [16]: 0.0189 µM
ED50 [17]: 0.0806 µM
ED50 [18]: 0.00534 µM
ED50 [19]: 5.73 µM
ED50 [20]: 8 µM
ED50 [21]: 0.0365 µM
ED50 [22]: 60 µM
ED50 [23]: 10.5 µM
ED50 (Wolframin (Homo sapiens)): 2.67 µM
ED50 [24]: 4.09 µM
ED50 [25]: 8.39 µM
ED50 [26]: 0.11 µM
ED50 [27]: 0.511 µM
ED50 [28]: 0.0155 µM
ED50 [29]: 0.371 µM
ED50 [30]: 4.09 µM
ED50 [31]: 0.678 µM
ED50 (Nestin (Homo sapiens)): 0.244 µM
ED50 [32]: 3.01 µM
ED50 [33]: 0.107 µM
ED50 [34]: 1.06 µM
ED50 [35]: 105 µM
ED50 [36]: 6.15 µM
ED50 [37]: 2.59 µM
ED50 [38]: 5.18 µM
ED50 [39]: 0.176 µM
ED50 [40]: 5.13 µM
ED50 [41]: 0.549 µM
ED50 [42]: 0.121 µM
ED50 [43]: 0.00873 µM
